Source: US7098233B2 (priority 2001, dated 2006)
pIC50, pKi: −log10 of the molar value. Where two headings read alike, the source gives them in different places.

Experiments:
[1] = target: T1, rat 5-HT6 stably transfected to HEK293 (Rattus norvegicus, UniProt P31388); experiment: 5-HT6 receptor binding, [3H]-LSD displacement; conditions: for selectivity of binding for 5-HT6 receptor (in words): over other serotonin sites and other neurotransmitter receptors
T1 construct: expressed in transfected cells; host or cells: HEK293
T1 sequence (P31388 whole entry): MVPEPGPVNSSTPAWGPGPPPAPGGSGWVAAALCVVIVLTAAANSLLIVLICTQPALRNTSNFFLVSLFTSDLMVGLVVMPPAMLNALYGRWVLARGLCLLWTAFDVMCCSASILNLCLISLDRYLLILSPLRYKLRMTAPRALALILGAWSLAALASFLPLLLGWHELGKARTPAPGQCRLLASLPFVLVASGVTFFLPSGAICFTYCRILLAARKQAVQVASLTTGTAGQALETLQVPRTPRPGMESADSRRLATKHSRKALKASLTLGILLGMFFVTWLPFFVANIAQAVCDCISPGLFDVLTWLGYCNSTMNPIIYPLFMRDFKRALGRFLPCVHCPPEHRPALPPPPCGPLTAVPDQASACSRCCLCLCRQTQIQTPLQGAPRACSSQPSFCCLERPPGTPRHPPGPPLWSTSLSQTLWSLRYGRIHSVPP

[2] = target: T2, human 5-HT7 receptor stably transfected to CHO cells (Homo sapiens, UniProt P34969); experiment: 5-HT7 receptor binding, [3H]-LSD displacement
T2 construct: expressed in transfected cells; host or cells: CHO
T2 sequence (P34969 whole entry): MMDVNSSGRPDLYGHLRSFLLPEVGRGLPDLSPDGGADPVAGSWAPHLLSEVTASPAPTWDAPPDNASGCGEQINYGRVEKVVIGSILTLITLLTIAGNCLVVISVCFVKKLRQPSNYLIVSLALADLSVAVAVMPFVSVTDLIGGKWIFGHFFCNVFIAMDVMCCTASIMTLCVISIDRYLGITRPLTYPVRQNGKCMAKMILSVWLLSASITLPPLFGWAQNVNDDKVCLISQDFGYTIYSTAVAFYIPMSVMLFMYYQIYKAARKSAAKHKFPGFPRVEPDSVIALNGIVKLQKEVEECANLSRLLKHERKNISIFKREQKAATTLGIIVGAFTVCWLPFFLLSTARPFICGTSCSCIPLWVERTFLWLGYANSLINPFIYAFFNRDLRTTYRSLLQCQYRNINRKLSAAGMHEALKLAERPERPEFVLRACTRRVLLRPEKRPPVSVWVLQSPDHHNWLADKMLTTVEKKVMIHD

5-HT1a = target: T3, 5-HT1a (Homo sapiens, UniProt P08908); experiment: Binding affinity for serotonin subtype 5-HT1a
T3 sequence (P08908 1-422): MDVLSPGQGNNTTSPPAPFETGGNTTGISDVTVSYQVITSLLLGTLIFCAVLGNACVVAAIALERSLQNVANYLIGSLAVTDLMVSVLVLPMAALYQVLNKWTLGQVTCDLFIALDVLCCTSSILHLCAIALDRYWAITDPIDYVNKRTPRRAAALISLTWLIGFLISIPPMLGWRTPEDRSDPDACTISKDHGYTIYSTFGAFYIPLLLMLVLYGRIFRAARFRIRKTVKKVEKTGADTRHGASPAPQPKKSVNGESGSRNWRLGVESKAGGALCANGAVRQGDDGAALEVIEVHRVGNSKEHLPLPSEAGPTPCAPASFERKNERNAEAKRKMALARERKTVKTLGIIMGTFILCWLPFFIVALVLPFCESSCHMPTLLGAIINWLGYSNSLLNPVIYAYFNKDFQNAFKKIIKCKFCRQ

5-HT1b = 5-HT1b (Homo sapiens, UniProt P28222); experiment: Binding affinity for serotonin subtype 5-HT1b
Chain of 5-HT1b (P28222 whole entry, species assumed): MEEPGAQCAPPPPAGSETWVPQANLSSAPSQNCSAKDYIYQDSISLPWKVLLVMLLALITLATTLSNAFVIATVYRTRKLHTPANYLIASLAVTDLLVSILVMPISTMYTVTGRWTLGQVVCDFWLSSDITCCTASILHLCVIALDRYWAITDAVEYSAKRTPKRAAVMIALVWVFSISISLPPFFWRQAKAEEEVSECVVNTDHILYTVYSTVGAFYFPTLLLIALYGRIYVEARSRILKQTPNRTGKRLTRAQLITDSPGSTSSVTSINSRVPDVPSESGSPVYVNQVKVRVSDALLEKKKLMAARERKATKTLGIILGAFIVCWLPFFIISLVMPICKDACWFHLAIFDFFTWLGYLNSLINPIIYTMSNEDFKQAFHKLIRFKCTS

5-HT1d = 5-HT1d (Homo sapiens, UniProt P28221); experiment: Binding affinity for serotonin subtype 5-HT1d
Chain of 5-HT1d (P28221 whole entry, species assumed): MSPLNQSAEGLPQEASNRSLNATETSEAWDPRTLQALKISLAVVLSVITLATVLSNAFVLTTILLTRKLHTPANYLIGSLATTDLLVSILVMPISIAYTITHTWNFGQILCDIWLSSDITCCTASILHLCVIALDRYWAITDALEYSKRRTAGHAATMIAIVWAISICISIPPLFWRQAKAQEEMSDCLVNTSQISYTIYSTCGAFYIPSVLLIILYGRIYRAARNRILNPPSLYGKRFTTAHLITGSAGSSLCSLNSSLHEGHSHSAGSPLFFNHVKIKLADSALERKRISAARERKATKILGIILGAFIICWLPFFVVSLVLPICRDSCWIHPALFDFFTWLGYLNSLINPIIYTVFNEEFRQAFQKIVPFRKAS

5-HT2b = 5-HT2b (Homo sapiens, UniProt P41595); experiment: Binding affinity for serotonin subtype 5-HT2b
Chain of 5-HT2b (P41595 whole entry, species assumed): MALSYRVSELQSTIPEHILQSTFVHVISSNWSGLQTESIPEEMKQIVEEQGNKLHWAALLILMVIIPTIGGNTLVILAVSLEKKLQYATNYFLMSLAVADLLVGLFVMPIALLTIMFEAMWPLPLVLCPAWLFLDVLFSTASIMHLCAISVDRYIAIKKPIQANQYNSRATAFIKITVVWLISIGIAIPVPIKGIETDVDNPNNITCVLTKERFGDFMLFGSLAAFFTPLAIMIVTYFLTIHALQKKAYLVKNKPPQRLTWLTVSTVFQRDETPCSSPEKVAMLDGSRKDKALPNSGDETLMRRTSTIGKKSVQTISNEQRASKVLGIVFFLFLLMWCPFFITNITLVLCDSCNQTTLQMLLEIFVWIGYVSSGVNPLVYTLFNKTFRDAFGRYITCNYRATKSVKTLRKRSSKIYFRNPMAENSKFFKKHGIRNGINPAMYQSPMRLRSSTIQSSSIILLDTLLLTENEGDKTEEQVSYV

5-HT2c = target: T4, 5-HT2c (Homo sapiens, UniProt P28335); experiment: Binding affinity for serotonin subtype 5-HT2c
T4 sequence (P28335 33-458): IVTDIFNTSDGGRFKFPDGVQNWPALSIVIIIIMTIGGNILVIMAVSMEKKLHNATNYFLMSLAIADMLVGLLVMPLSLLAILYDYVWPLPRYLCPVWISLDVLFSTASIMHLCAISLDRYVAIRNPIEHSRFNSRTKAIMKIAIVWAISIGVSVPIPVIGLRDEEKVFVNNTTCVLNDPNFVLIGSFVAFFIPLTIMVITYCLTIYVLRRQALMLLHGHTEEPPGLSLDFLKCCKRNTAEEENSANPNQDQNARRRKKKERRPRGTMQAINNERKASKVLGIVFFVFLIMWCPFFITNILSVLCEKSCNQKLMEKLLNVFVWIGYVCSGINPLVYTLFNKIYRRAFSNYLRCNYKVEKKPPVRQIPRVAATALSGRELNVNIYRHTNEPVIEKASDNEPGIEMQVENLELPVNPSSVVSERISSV

5-HT3 = target: T5, 5-HT3 (Homo sapiens, UniProt P46098); experiment: Binding affinity for serotonin subtype 5-HT3
T5 sequence (P46098 24-478): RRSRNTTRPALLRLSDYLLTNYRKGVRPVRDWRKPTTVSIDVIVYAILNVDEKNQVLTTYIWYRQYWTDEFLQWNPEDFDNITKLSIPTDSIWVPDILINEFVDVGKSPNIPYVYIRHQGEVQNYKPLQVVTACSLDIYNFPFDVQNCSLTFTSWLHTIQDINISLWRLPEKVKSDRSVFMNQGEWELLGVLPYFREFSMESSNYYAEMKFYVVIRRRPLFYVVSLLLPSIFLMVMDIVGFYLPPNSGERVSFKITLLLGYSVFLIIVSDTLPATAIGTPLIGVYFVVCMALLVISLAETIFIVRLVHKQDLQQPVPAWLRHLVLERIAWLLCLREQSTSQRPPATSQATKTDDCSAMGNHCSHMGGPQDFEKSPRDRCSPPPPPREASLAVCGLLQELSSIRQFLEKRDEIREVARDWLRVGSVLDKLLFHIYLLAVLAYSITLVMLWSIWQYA

5-HT4 = 5-HT4 (Homo sapiens, UniProt Q13639); experiment: Binding affinity for serotonin subtype 5-HT4
5-HT5a = 5-HT5a (Homo sapiens, UniProt P47898); experiment: Binding affinity for serotonin subtype 5-HT5a
5-HT transporter = 5-HT transporter (Homo sapiens, UniProt P31645); experiment: Binding affinity for 5-HT transporter
Chain of 5-HT transporter (P31645 whole entry): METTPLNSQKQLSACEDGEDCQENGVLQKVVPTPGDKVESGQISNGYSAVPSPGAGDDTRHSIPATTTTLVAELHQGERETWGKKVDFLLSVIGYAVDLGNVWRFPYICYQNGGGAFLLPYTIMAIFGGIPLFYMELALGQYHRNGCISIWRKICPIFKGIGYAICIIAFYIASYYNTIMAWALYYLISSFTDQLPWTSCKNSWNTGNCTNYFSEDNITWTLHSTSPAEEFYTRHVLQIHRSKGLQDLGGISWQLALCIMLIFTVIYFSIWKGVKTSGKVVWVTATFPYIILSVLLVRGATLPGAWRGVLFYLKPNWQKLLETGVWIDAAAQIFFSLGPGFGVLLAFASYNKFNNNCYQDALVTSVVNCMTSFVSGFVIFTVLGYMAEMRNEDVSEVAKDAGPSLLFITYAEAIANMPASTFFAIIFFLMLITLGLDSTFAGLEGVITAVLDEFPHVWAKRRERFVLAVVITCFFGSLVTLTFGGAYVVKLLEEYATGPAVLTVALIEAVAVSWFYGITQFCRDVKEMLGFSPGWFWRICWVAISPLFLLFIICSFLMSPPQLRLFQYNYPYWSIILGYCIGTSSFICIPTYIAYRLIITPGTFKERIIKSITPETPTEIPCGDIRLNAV

alpha1a adrenergic = alpha1a adrenergic (Homo sapiens, UniProt P35348); experiment: Receptor panel binding: alpha1a adrenergic
beta1 adrenergic = beta1 adrenergic (Homo sapiens, UniProt P08588); experiment: Receptor panel binding: beta1 adrenergic
D1 dopaminergic = D1 dopaminergic (Homo sapiens, UniProt P21728); experiment: Receptor panel binding: D1 dopaminergic
D2 dopaminergic = D2 dopaminergic (Homo sapiens, UniProt P14416); experiment: Receptor panel binding: D2 dopaminergic
D3 dopaminergic = D3 dopaminergic (Homo sapiens, UniProt P35462); experiment: Receptor panel binding: D3 dopaminergic
Chain of D3 dopaminergic (P35462 whole entry): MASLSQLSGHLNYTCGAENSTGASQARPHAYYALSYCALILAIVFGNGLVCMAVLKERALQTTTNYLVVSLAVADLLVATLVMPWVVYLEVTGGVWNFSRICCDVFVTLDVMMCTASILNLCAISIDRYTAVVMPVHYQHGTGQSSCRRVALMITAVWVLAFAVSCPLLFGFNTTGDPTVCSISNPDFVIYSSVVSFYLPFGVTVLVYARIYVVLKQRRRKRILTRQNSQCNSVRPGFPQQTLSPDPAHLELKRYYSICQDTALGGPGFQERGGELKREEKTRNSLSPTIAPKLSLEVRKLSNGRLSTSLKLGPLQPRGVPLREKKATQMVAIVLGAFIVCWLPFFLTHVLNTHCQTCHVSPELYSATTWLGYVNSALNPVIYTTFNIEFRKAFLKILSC

D4,4 dopaminergic = target: T6, D4,4 dopaminergic (Homo sapiens, UniProt P21917); experiment: Receptor panel binding: D4,4 dopaminergic
T6 sequence (P21917 1-419): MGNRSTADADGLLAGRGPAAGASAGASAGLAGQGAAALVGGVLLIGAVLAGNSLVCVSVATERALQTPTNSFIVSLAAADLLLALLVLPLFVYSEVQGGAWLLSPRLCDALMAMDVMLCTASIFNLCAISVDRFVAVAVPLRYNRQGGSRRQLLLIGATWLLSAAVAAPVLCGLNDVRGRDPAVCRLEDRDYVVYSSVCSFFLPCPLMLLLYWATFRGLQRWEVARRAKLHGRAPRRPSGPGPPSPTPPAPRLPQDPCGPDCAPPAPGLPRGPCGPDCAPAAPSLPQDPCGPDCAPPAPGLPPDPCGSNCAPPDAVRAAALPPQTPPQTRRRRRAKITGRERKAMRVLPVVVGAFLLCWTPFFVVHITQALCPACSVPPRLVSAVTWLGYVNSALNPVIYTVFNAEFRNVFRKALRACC

D5 dopaminergic = D5 dopaminergic (Homo sapiens, UniProt P21918); experiment: Receptor panel binding: D5 dopaminergic
Chain of D5 dopaminergic (P21918 whole entry): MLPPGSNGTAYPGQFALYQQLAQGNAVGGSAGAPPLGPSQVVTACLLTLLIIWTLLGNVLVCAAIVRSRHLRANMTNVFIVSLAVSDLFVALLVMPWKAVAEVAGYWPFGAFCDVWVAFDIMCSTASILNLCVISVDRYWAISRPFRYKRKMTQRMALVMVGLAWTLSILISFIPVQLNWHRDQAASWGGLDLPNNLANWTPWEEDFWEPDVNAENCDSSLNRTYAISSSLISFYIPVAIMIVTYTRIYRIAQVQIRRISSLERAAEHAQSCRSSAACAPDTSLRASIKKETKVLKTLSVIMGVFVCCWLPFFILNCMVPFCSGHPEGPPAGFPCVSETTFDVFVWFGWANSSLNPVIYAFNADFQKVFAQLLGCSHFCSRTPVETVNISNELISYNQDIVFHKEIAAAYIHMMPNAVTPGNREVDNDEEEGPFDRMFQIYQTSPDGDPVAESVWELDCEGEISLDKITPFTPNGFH

H1 histaminergic = H1 histaminergic (Homo sapiens, UniProt P35367); experiment: Receptor panel binding: H1 histaminergic
Chain of H1 histaminergic (P35367 whole entry): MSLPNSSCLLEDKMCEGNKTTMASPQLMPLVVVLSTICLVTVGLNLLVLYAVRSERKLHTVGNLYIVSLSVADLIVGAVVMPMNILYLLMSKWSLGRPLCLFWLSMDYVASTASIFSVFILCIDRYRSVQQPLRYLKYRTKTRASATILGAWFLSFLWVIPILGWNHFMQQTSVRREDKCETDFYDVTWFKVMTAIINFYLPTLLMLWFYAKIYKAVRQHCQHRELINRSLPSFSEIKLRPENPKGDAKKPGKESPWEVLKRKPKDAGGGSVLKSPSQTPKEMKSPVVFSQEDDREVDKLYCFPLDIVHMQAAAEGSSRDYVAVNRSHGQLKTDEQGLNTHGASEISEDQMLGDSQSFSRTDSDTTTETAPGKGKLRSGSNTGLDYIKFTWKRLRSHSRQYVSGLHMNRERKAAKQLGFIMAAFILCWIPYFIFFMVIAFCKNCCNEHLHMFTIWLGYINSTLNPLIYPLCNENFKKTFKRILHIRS

V1a of vasopressin = V1a of vasopressin (Homo sapiens, UniProt P37288); experiment: Receptor panel binding: vasopressin V1a
V1b of vasopressin = V1b of vasopressin (Homo sapiens, UniProt P47901); experiment: Receptor panel binding: vasopressin V1b
V2 of vasopressin = V2 of vasopressin (Homo sapiens, UniProt P30518); experiment: Receptor panel binding: vasopressin V2
NA transporter = NA transporter (Homo sapiens, UniProt P23975); experiment: Receptor panel binding: NA transporter
Chain of NA transporter (P23975 whole entry): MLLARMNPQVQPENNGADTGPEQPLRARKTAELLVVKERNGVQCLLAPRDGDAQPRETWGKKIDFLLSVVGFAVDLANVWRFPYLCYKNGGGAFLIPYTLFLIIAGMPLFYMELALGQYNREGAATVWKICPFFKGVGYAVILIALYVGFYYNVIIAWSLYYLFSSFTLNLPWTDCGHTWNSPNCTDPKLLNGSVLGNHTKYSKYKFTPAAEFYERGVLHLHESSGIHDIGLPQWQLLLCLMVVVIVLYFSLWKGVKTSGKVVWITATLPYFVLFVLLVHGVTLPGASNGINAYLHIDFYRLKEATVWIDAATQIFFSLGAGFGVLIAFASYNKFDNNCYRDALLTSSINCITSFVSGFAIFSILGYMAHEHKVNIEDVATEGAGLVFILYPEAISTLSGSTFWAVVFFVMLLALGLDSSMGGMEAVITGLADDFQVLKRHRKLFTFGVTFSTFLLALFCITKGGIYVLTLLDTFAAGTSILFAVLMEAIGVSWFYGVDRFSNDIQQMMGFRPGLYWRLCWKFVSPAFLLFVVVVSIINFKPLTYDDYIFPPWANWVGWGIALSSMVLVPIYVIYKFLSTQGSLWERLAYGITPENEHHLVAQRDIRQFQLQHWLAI

DA transporter = DA transporter (Homo sapiens, UniProt Q01959); experiment: Receptor panel binding: DA transporter
[3] = target: T7, alpha1b adrenergic receptor (Homo sapiens, UniProt P35368); experiment: Receptor panel binding: alpha1b adrenergic; conditions: for interaction capability for alpha1b receptors lower than for 5-HT6 receptor: alpha1b versus 5-HT6
T7 sequence (P35368 1-520): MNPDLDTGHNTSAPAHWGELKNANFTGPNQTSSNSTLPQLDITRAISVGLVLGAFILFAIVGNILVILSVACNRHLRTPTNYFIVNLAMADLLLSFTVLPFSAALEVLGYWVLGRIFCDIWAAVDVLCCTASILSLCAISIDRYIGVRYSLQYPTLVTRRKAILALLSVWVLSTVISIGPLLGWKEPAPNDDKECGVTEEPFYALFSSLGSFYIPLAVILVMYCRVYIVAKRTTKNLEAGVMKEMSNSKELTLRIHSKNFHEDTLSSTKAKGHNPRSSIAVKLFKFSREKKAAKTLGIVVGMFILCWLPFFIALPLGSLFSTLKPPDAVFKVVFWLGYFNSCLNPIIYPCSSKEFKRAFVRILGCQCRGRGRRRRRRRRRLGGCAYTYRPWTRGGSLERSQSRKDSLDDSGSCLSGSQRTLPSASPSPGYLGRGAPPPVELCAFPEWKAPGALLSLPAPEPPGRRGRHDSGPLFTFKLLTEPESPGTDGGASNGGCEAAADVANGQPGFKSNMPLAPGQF

5-HT2a = 5-HT2a (Homo sapiens, UniProt P28223); experiment: biochemical; format: binding
NMDA = experiment: Receptor panel binding: NMDA; conditions: read-out: affinity value, NMDA
[4] = target: muscarinic (non-selective); experiment: Receptor panel binding: muscarinic; conditions: read-out: affinity value, muscarinic (non-selective)
opiate (non-selective) = experiment: Receptor panel binding: opiate; conditions: read-out: affinity value, opiate (non-selective)
PCP = experiment: Receptor panel binding: PCP; conditions: read-out: affinity (Ki), PCP
nicotinic receptors = experiment: Receptor panel binding: nicotinic receptors; conditions: read-out: affinity (Ki), nicotinic receptors
vasopressin V1 = experiment: Receptor panel binding: vasopressin V1; conditions: read-out: affinity (Ki), vasopressin V1

SMILES	5-HT6 binding affinity compared with Serotonin (in words) [1]	pIC50 [1]	pKi [1]	affinity for rat recombinant 5-HT6 receptor (in words) [1]	pIC50 [2]	pKi [2]	affinity for human recombinant 5-HT7 receptor (in words) [2]	pKi (5-HT1a)	pKi (5-HT1b)	pKi (5-HT1d)	pKi (5-HT2b)	pKi (5-HT2c)	pKi (5-HT3)	pKi (5-HT4)	pKi (5-HT5a)	pKi (5-HT transporter)	pKi (D1 dopaminergic)	pKi (D2 dopaminergic)	pKi (D3 dopaminergic)	pKi (D4,4 dopaminergic)	also measured
Cc1[nH]c2ccc(Cl)cc2c1CCN(C)C [ST 1936, 5-chloro-2-methyl-N,N-dimethyltryptamine]	greater than that observed for Serotonin	7.21	7.51	high affinity	6.28	6.77	moderate	< 6.00	< 6.00	< 6.00	< 6.00	< 6.00	< 6.00	< 6.00	< 6.00	< 6.00	≤ 6.00	≤ 6.00	≤ 6.00	≤ 6.00	pKi (alpha1a adrenergic): ≤ 6.00; pKi (beta1 adrenergic): ≤ 6.00; pKi (D5 dopaminergic): ≤ 6.00; pKi (H1 histaminergic): ≤ 6.00; pKi (V1a of vasopressin): ≤ 6.00; pKi (V1b of vasopressin): ≤ 6.00; pKi (V2 of vasopressin): ≤ 6.00; pKi (NA transporter): ≤ 6.00; pKi (DA transporter): ≤ 6.00; pKi [3]: 7.28; interaction capability for alpha1b receptors lower than for 5-HT6 receptor [3]: about 2 fold; melting point: 126 to 127 °C
Cc1[nH]c2ccc(Br)cc2c1CCN(C)C [ST 1938, 5-bromo-2-methyl-N,N-dimethyltryptamine]	greater than that observed for Serotonin	7.21	7.49	high affinity	6.80	7.33	highest affinity	6.02	< 6.00	< 6.00	6.81	< 6.00	< 6.00	< 6.00	< 6.00	< 6.00	< 6.00	< 6.00	< 6.00	< 6.00	selectivity of binding for 5-HT6 receptor (in words) [1]: mixed activity for 5-HT6 and 5-HT7 serotonin receptors; pKi (5-HT2a): < 6.00; pKi (D5 dopaminergic): < 6.00; pKi (NMDA): < 6.00; pKi [4]: < 6.00; pKi (H1 histaminergic): < 6.00; pKi (opiate (non-selective)): < 6.00; pKi (V2 of vasopressin): < 6.00; pKi (NA transporter): < 6.00; pKi (DA transporter): < 6.00; pKi (PCP): < 6.00; pKi (nicotinic receptors): < 6.00; pKi (vasopressin V1): < 6.00; melting point: 135 to 136 °C
CCc1[nH]c2ccc(Cl)cc2c1CCN(C)C [ST 2253, 5-Chloro-2-ethyl-N,N-dimethyltryptamine]	greater than that observed for Serotonin	7.28	7.59	high affinity	< 6.00	< 6.00	negligible	≤ 6.00	< 6.00	< 6.00	7.08	< 6.00	< 6.00	< 6.00	< 6.00	< 6.00	≤ 6.00	≤ 6.00	≤ 6.00	≤ 6.00	selectivity of binding for 5-HT6 receptor (in words) [1]: selective affinity for 5-HT6 receptor; Ki ([2]; read-out: Affinity (Ki) 5-HT7, Table 2, cell printed in μM): > 1 µM; pKi (5-HT2a): < 6.00; pKi (alpha1a adrenergic): ≤ 6.00; pKi (beta1 adrenergic): ≤ 6.00; pKi (D5 dopaminergic): ≤ 6.00; pKi (H1 histaminergic): ≤ 6.00; pKi (V1a of vasopressin): ≤ 6.00; pKi (V1b of vasopressin): ≤ 6.00; pKi (V2 of vasopressin): ≤ 6.00; pKi (NA transporter): ≤ 6.00; pKi (DA transporter): ≤ 6.00; pKi [3]: 7.16; interaction capability for alpha1b receptors lower than for 5-HT6 receptor [3]: ~3 fold; melting point: 188 °C (dec.)
NCCc1c[nH]c2ccc(O)cc12 [Serotonin, reference compound]		6.77	7.06																		
